Like-named read-outs stand apart in the source and are kept apart here.
Experiment: Pharmacokinetic evaluation following a single oral and intravenous administration
Assay type: in vivo, CD1 mouse
Details: CD1, mouse, plasma; for C0 / AUC(0-inf) / AUC(0-t) / MRT inf / half-life / Vd: Table 10, IV Dose: 1 mg/kg
Protocol: A NMP stock solution was prepared by adding 1.136 mL of NMP to 5.68 mg of compound no. 42140 with vortexing and sonification, to obtain a solution with a concentration at 5 mg/mL of 42140:01. Next, to prepare an intravenous formulation, 0.100 mL of the 5 mg/mL stock solution was placed in a new vial. 0.100 mL of NMP and 0.400 mL of PEG400 were added with vortexing and sonification, followed by addition of 0.400 mL of saline with vortexing and sonification. […] 42140:01. Alternatively, to prepare an oral formulation, 0.200 mL of the 5 mg/mL stock solution was placed in a new vial. 0.400 mL of PEG400 was added with vortexing and sonification, followed by addition of 0.400 mL of saline with vortexing and sonifiction. […] 42140:01.
(§1) Briefly, the desired serial concentrations of working solutions were achieved by diluting a stock solution of the compound with 100% acetonitrile. 3 μL of working solutions (5, 10, 20, 50, 100, 500, 1000, 5000, 10000 ng/mL) were added to 30 μL of the blank CD1 mouse plasma to achieve calibration standards of 0.5-1000 ng/mL (0.5, 1, 2, 5, 10, 50, 100, 500, 1000 ng/mL) in a total volume of 33 μL. Five quality control samples at 1 ng/mL, 2 ng/mL, 5 ng/mL, 50 ng/mL and 800 ng/mL for plasma were prepared independently of those used for the calibration curves. These QC samples were prepared on the day of analysis in the same way as calibration standards.
Next, 33 μL standards, 33 μL QC samples, and 33 μL unknown samples (30 μL plasma with 3 μL blank solution) were added to 200 μL of acetonitrile containing IS mixture for precipitating protein, respectively. Then the samples were vortexed for 30 s. After centrifugation at 4 degree Celsius, 4000 rpm for 15 min, 3 μL of supernatant was injected into the LC/MS/MS system for quantitative analysis.
HPLC analysis was performed using 100% water with 0.1% formic acid (Solution A) and 100% acetonitrile with 0.1% formic acid (Solution B) with a flow rate of 0.6 mL/min.
A NMP stock solution was prepared by adding 2.092 mL of NMP to 10.46 mg of […] with vortexing and sonification, to obtain a solution with a concentration at 5 mg/mL of […]. Next, to prepare an intravenous formulation, 0.100 mL of the 5 mg/mL stock solution was placed in a new vial. 0.100 mL of NMP and 0.400 mL of PEG400 were added with vortexing and sonification, followed by addition of 0.400 mL of saline with vortexing and sonification. […] 42320:01. Alternatively, to prepare an oral formulation, 0.200 mL of the 5 mg/mL stock solution was placed in a new vial. 0.400 mL of PEG400 was added with vortexing and sonification, followed by addition of 0.400 mL of saline with vortexing and sonifiction. […] 42320:01.
as §1, with “50 ng/mL,” for “50 ng/mL”

[1] = iv, 1 mg/kg, Table 9, IV Dose: 1 mg/kg, Mouse 1, read-out: Concentration
[2] = iv, 1 mg/kg, Table 9, IV Dose: 1 mg/kg, Mouse 2, read-out: Concentration
[3] = iv, 1 mg/kg, Table 9, IV Dose: 1 mg/kg, Mouse 3, read-out: Concentration
[4] = iv, 1 mg/kg, Table 9, IV Dose: 1 mg/kg, mean, read-out: Concentration, Mean
[5] = po, 5 mg/kg, Table 11, PO Dose: 5 mg/kg, Mouse 4, read-out: Concentration
[6] = po, 5 mg/kg, Table 11, PO Dose: 5 mg/kg, Mouse 5, read-out: Concentration
[7] = po, 5 mg/kg, Table 11, PO Dose: 5 mg/kg, Mouse 6, read-out: Concentration
[8] = po, 5 mg/kg, Table 11, PO Dose: 5 mg/kg, mean, read-out: Concentration, Mean

concentration at 5 min [1]: 86.9 ng/mL
concentration at 5 min [2]: 90.3 ng/mL
concentration at 5 min [3]: 85.7 ng/mL
concentration at 5 min [4]: 87.6 ng/mL
concentration at 0.25 h [1]: 68.4 ng/mL
concentration at 0.25 h [2]: 65 ng/mL
concentration at 0.25 h [3]: 68.3 ng/mL
concentration at 0.25 h [4]: 67.2 ng/mL
concentration at 0.5 h [1]: 68 ng/mL
concentration at 0.5 h [2]: 59.2 ng/mL
concentration at 0.5 h [3]: 52.7 ng/mL
concentration at 0.5 h [4]: 60 ng/mL
concentration at 1 h [1]: 41.2 ng/mL
concentration at 1 h [2]: 39.4 ng/mL
concentration at 1 h [3]: 47.1 ng/mL
concentration at 1 h [4]: 42.6 ng/mL
concentration at 2 h [1]: 26.5 ng/mL
concentration at 2 h [2]: 23.9 ng/mL
concentration at 2 h [3]: 25.9 ng/mL
concentration at 2 h [4]: 25.4 ng/mL
concentration at 4 h [1]: 11.9 ng/mL
concentration at 4 h [2]: 9.71 ng/mL
concentration at 4 h [3]: 13 ng/mL
concentration at 4 h [4]: 11.5 ng/mL
concentration at 8 h [1]: 4.08 ng/mL
concentration at 8 h [2]: 3.66 ng/mL
concentration at 8 h [3]: 5.31 ng/mL
concentration at 8 h [4]: 4.35 ng/mL
C0 (iv, 1 mg/kg, Mouse 1): 97.9 ng/mL
AUC(0-inf) (iv, 1 mg/kg, Mouse 1, read-out: AUCInf): 183 ng·h/mL
AUC(0-t) (iv, 1 mg/kg, Mouse 1, read-out: AUClast): 169 ng·h/mL
MRT inf (iv, 1 mg/kg, Mouse 1, read-out: MRTInf—obs): 2.66 h
half-life (iv, 1 mg/kg, Mouse 1, read-out: T1/2 (converted)): 2.27 h
Vd (iv, 1 mg/kg, Mouse 1, read-out: Vss—obs): 14.6 L/kg
C0 (iv, 1 mg/kg, Mouse 2): 106 ng/mL
AUC(0-inf) (iv, 1 mg/kg, Mouse 2, read-out: AUCInf): 165 ng·h/mL
AUC(0-t) (iv, 1 mg/kg, Mouse 2, read-out: AUClast): 153 ng·h/mL
MRT inf (iv, 1 mg/kg, Mouse 2, read-out: MRTInf—obs): 2.59 h
half-life (iv, 1 mg/kg, Mouse 2, read-out: T1/2 (converted)): 2.29 h
Vd (iv, 1 mg/kg, Mouse 2, read-out: Vss—obs): 15.7 L/kg
C0 (iv, 1 mg/kg, Mouse 3): 96 ng/mL
AUC(0-inf) (iv, 1 mg/kg, Mouse 3, read-out: AUCInf): 193 ng·h/mL
AUC(0-t) (iv, 1 mg/kg, Mouse 3, read-out: AUClast): 172 ng·h/mL
MRT inf (iv, 1 mg/kg, Mouse 3, read-out: MRTInf—obs): 3.17 h
half-life (iv, 1 mg/kg, Mouse 3, read-out: T1/2 (converted)): 2.68 h
Vd (iv, 1 mg/kg, Mouse 3, read-out: Vss—obs): 16.4 L/kg
AUC(0-inf) (iv, 1 mg/kg, mean, read-out: AUCInf, Mean): 180 ng·h/mL
AUC(0-t) (iv, 1 mg/kg, mean, read-out: AUClast, Mean): 165 ng·h/mL
MRT inf (iv, 1 mg/kg, mean, read-out: MRTInf—obs, Mean): 2.81 h
half-life (iv, 1 mg/kg, mean, read-out: T1/2, Mean (converted)): 2.41 h
Vd (iv, 1 mg/kg, mean, read-out: Vss—obs, Mean): 15.6 L/kg
concentration at 0.25 h [5]: 100 ng/mL
concentration at 0.25 h [6]: 71.4 ng/mL
concentration at 0.25 h [7]: 78.6 ng/mL
concentration at 0.25 h [8]: 83 ng/mL
concentration at 0.5 h [5]: 201 ng/mL
concentration at 0.5 h [6]: 121 ng/mL
concentration at 0.5 h [7]: 122 ng/mL
concentration at 0.5 h [8]: 148 ng/mL
concentration at 1 h [5]: 193 ng/mL
concentration at 1 h [6]: 119 ng/mL
concentration at 1 h [7]: 112 ng/mL
concentration at 1 h [8]: 141 ng/mL
Compound: CC(=O)N[C@@H](Cc1ccc(CN(C)C)cc1)c1nnc(-c2cccc(OC(F)(F)F)c2)s1 [Compound 42320, N-(2-(4-((dimethylamino)methyl)phenyl)-1-(5-(3-(trifluoromethoxy)phenyl)-1,3,4-thiadiazol-2-yl)ethyl)acetamide]
